For series [1], the system named is ALI-HBECs. Details: species or system human. The note with it: for Fraction of parent metabolites that are M1 / Absorption into cells: optimization dataset. The source says:
A dosimetry model was developed to contextualize how PAHs interact with ALI-HBECs during exposure (Fig. 1). The model describes the time course dosimetry of two PAHs: […] Model parameters for cell and media compartments were characterized based on measurements for the ALI-HBEC culture system described by […] Technologies (Table 2). […] [28], [67]. We initially modeled parent and metabolite transport among compartments as passive diffusion using ordinary differential equations. […] Consistent with these previous observations, we observed induction of CYP1A1 activity as measured by P450-GloTM (see Results). […] CYP1A1 activity was included as a coefficient of the rate of metabolism for PAH parent which could be triggered by an induction switch. The switch allows for metabolism induction to be turned on or off in future uses of the model. When turned off, the CYP term is set to 1 and the rate of metabolism behaves as described above. […] Parameters were optimized against the optimization UPLC dataset. Parent absorption and metabolism were optimized together against data for BAP in cells. Parent permeability and volatilization were optimized together against data for BAP in media. […] All model parameters and CYP1A1 rational function coefficients were optimized using a maximum log likelihood objective with the Nelder-Mead algorithm and starting values set by visual inspection. The model was built in R version 4.4.2 (R Foundation for Statistical Computing, Vienna, Austria) using the RMagnolia R package version 1.3.15 (https://www.magnoliasci.com/rmagnolia/). The Akaike Information Criterion (AIC) was used for selecting the best model fit for CYP1A1 activity, inclusion of metabolism induction, and inclusion of active efflux. The final model with metabolism induction and active efflux of the metabolite was validated by comparison to data collected in the validation UPLC dataset.

For series [2], the system named is ALI-HBECs. The experiment in a line: Mass balance experiments: BAP and metabolites in cell, media and mucus fractions by UPLC. Format: in vitro ADME, human. The method, then:
(§1) Normal HBECs (Lonza, Basel, Switzerland) were expanded to passage 4 in PneumaCult™-Ex Plus medium and transferred to 12-well plates with 12 mm transwell inserts ([…] Technologies, Vancouver, BC, Canada) and 30,000 cells per insert or 24-well plates with 6.5 mm transwell inserts ([…] Technologies, Vancouver, BC, Canada) and 9000 cells per insert for differentiation at the ALI using PneumaCult™-ALI medium. Cells were cultured at the ALI for 25 days at 37°C and 5 % CO2 with media changes every 2–3 days and mucus washes using DPBS on the apical surface once a week starting at 14 days post air-lifting to maintain healthy ALI cultures. Just before exposure, media was changed and ALI-HBECs were apically washed with DPBS or ALI media to remove mucus.
(§2) Glass pipettes were used for all collection and extraction steps to reduce loss of compound from binding to plastic. ALI media was used instead of DPBS for all rinse and collection steps due to interference with the fluorescence detector. At each timepoint, basal media was collected and the bottom of the insert rinsed, the apical surface was washed and rinses collected, and cells were collected by scraping with a stainless-steel spatula and rinsed from the insert. All collected fractions were flash frozen in liquid nitrogen and stored at −80°C.
(§3) For Phase 2 metabolite analysis, samples were incubated with β-glucuronidase to deconjugate glucuronide and […] metabolites following methods described by Combie et al.. For cell fractions, 0.1 mm glass beads were added to the sample and placed in a Next Advance Bullet Blender™ 24 (Troy, NY) for 3 min to fully lyse cells and increase recovery. All cell, media, and mucus samples were transferred to amber glass vials and adjusted to pH 5 with acetic acid. β-glucuronidase reconstituted in water was added to samples at 5000 U/mL, and samples were incubated at 65°C for 3 h. Samples were allowed to cool to room temperature before continuing with extractions.
(§4) All samples were spiked with DBC as an internal standard for a final concentration of 2.5 μM to correct compound recovery for extraction efficiency. Cell fractions not previously incubated with β-glucuronidase were lysed by blending with 0.1 mm glass beads. All cell, media, and mucus samples were transferred to glass vials, vortexed and sonicated in ethyl acetate, and incubated for 2 h at −20°C to precipitate any protein. Samples were centrifuged at 2000 rcf for 10 min, and the ethyl acetate supernatant was collected. This was repeated for a total of three rounds. Ethyl acetate was evaporated to dryness under nitrogen gas, samples were reconstituted in 100 μL ACN, and samples were stored at −80°C.
(§5) Glucuronide metabolite formation was estimated as the difference between samples incubated with and without β-glucuronidase at similar timepoints.

Test in series [3]: as above
Particulars: human. It is filed as in vitro ADME, human. On the procedure:
as §1, §2, §3, §4, §5

In series [4] the test system is CYP1A1. The experiment in a line: RNA-sequencing, differential expression of CYP1A1. Format: cell-based, human. Particulars: 24 h, BAP 0.076-3 µg/cm^2, vs vehicle control. On the procedure: (§6) Cells were collected from inserts and lysed with RLT lysis buffer with 1 % β-mercaptoethanol using the RNeasy Mini Kit (Qiagen, Hilden, Germany) and stored at −80 °C. RNA was isolated from cell lysate using the RNeasy Mini Kit per the manufacturer’s protocol and was quantified on a Synergy HTX (BioTek, Winooski, VT, USA) plate reader equipped with a Take3 module (BioTek, Winooski, VT, USA). […] For library construction, mRNA was poly-A selected and libraries were prepared as previously described by Dasgupta et al.. High quality reads with a sequencing length greater than 150 bp were annotated and mapped to the human reference genome GRCh38.p14 using HISAT2, count tables were generated with feature Counts, and differential expression was conducted using the DESeq2 R package version 1.46.0 compared to vehicle control, [64]. In vehicle exposed samples, the fragment per kilobase million (FPKM) was calculated for each gene, and genes with an FPKM > 1 were considered constitutively expressed, [102], [114]. Genes associated with xenobiotic metabolism and transport were identified by pathway enrichment analysis in MetaCore (GeneGo, Thomson Reuters, Carlsbad, CA) and by literature search.

Series [5] deals with CYP1A1. As to the kind of experiment: CYP1A1 activity, P450-Glo CYP1A1 Assay in ALI-HBECs. Format: cell-based, human. Particulars: BAP 2.26 µg/cm^2, 0-48 h.
Method: CYP1A1 activity was measured in ALI-HBECs using the P450-Glo™ CYP1A1 Assay System (Promega, Madison, WI). The protocol was adapted to assess CYP1A1 activity in ALI-HBECs. Luciferin-CEE solution was diluted in DPBS, ALI-HBEC basal media was replaced with DPBS, and 50 µL of Luciferin-CEE solution was added to the apical surface. […] Luminescence was recorded on a Synergy HTX plate reader. Cell viability was measured using the CellTiter-Glo® (CTG) Luminescent Cell Viability Assay (Promega, Madison, WI) per manufacturer’s protocol, and luminescence was recorded on a Synergy HTX plate reader. Background luminescence was subtracted from all data, and CYP1A1 activity was normalized to cell viability for each sample.
Series [6] relates to genes related to xenobiotic metabolism and transport in ALI-HBECs. As to the kind of experiment: RNA-sequencing, differentially expressed xenobiotic transport and metabolism genes. Format: cell-based, human. The note with it: 24 h, by at least one BAP treatment vs vehicle control. The method, then:
as §6

Setting [7] is: M1 parameter, Active Efflux model.
[8] abbreviates: M1 parameter, Active Efflux model, set as parent value.
The mark [9] stands for this setting: M1 parameter, Passive Diffusion model.
The mark [10] stands for this setting: M1 parameter, Passive Diffusion model, set as parent value.
The mark [11] stands for this setting: parent parameter, No Metabolism Induction.
The mark [12] stands for this setting: parent parameter, With Metabolism Induction.

Where two headings read alike, the source gives them in different places. Bounds are passed on as bounds.

Turning to `OC1C=Cc2c(cc3ccc4cccc5ccc2c3c45)C1O` (centres unmarked) [7,8-dihydrodiol, BAP-7,8-dihydrodiol], in the series with ALI-HBECs [1] (setting [7]), the “Active efflux into media” value was 0.000869 L/h, the “Active efflux into mucus” value stood at 0.000445 L/h, the Clearance by metabolism is 0.79 L/hr/kg^3/4 and the “Fraction of parent metabolites that are M1” value was 0.099. Also, in the series with ALI-HBECs [1] (setting [8]), the Volatilization from media came out at 0.00185 h⁻¹ and the Volatilization from mucus turned out to be 0.00185 h⁻¹. Moreover, in the series on ALI-HBECs [1] (setting [9]), the Clearance by metabolism came out at 3.93 L/hr/kg^3/4, the Permeability of cells came out at 16.9 ×10⁻⁶ cm/s and the “Fraction of parent metabolites that are M1” value was 0.022. Further, in the series with ALI-HBECs [1] (setting [10]), the Volatilization from media came out at 0.00185 h⁻¹ and the Volatilization from mucus was 0.00185 h⁻¹. The “Fraction of M1 formed from parent metabolites” value in the series on ALI-HBECs [1] (model temporarily optimized to the validation set (BAP 4.67 µg/cm^2)) is 0.05.

On to `c1ccc2c(c1)cc1ccc3cccc4ccc2c1c34` [BAP, Benzo[a]pyrene], for which, in the series with ALI-HBECs [1] (setting [11]), the Volatilization from media was 0.00436 h⁻¹ and the Absorption into cells came out at 0.47 h⁻¹. In the series on ALI-HBECs [1] (setting [12]), the Volatilization from media came to 0.00185 h⁻¹ and the Absorption into cells stood at 0.24 h⁻¹. In the series on ALI-HBECs [2] (after exposure), the “time by which BAP was cleared from cells” value is at most 48 h. In the series on ALI-HBECs [2] (optimization dataset), the “time before BAP started releasing into the media fraction” value is above 4 h. Moreover, in the series on ALI-HBECs [2] (optimization dataset, BAP 2.26 µg/cm^2), the “average BAP recovery at 0 h (amount)” value was found to be 8.6 nmol. For the same compound, the “average BAP recovery at 0 h (amount)” value with ALI-HBECs [2] (validation dataset, BAP 4.67 µg/cm^2) was determined as 16.8 nmol. For the same compound, in series [3], the recovery at 0 h, 2.26 µg/cm^2 came to 85.2% and the recovery at 0 h, 4.67 µg/cm^2 amounted to 87.5%. Further, the “CYP1A1 average induction (mRNA)” value in the series on CYP1A1 [4] is 12.6 fold. Further, the “time of maximum CYP1A1 activity” value in the series with CYP1A1 [5] is listed as 8 h. In addition, in series [6], the “number of genes related to xenobiotic metabolism significantly differentially expressed” value was 38 genes and the “number of genes related to xenobiotic transport significantly differentially expressed” value was 8 genes.
